System: MXT mouse mammary tumor
Experiment: Cisplatin-treated MXT mouse mammary tumor model, CCDTHT (Example 10)
Assay type: in vivo
Settings: every second day from day 7: cisplatin 3-mg/kg i.p., CCDTHT 4.6-mg/kg s.c., highly purified PALP 14-mg/kg s.c.
Text: The B16 mouse melanoma and MXT mouse mammary tumors were developed in first generation hybrid BDF1 (C57 B1 female×DBA/2 male) adult female mice kept at specified pathogen free (SPF) hygienic level. These models were chosen for these experiments because these mice have the complete immune system, and both tumors grow very rapidly. To develop the tumors, B16 and MXT tumor tissue fragments of about 0.1-cm^3 were surgically implanted subcutaneously into the intrascapular region to develop the tumors. Each tumor fragment contained about 1-1.5×10^6 cells. The animals were kept in macrolon cages on ventilated rack at 22-24° C. (50-60% humidity) with lighting regimen of 12/12 h light/dark. The animals had free access to tap water and were fed with sterilized standard diet (Charles River VRF1, Germany) ad libitum. The animals were taken care of according to the “Guiding Principle for the care and use of Animals” based upon the Helsinki declaration and they were approved by the local ethical committee.
In case of both tumor models the tumor size was usually in the range of 0.2 to 0.5-g when treatments started 7-11 days after tumor implantation; the mice were selected so that in the same treatment group the difference in tumor size was no greater than 0.1 gram. In some experiments, the test proteins were suspended in physiological saline and injected in 50-μl volume subcutaneously in the vicinity of tumor (within 1-cm of tumor margin). In other experiments, the test proteins were dispersed in Vaselinum cholesteratum and used topically; 150-mg cream was applied on the tumor and the vicinity of tumor area (with about 0.5-cm of the tumor margin). The tumor volume was determined by using calipers; this technique is well known to one having ordinary skill in the art. Tumor volume was calculated according to the generally accepted formula: V=a^2×b×7r/6, where “a” and “b” mean the shortest and longest diameter, respectively, of the measured tumor.
The mouse MXT mammary tumor was developed as described in Example 3. In the first group, animals remained untreated during the whole observation period. In the second group, starting on the 7th day after tumor implantation, mice were administered 3-mg per 1-kg of cisplatin i.p. 9-times every second day. In the third group, starting on the 7th day after tumor implantation, mice were simultaneously administered 3-mg per 1-kg of cisplatin i.p. and 4.6-mg per 1-kg of CCDTHT s.c. In the fourth group, starting on the 7th day after tumor implantation, mice were simultaneously administered 3-mg per 1-kg of cisplatin i.p. as well as 4.6-mg per 1-kg of CCDTHT s.c. and 14-mg per 1-kg of highly purified PALP s.c. Each treatment was performed 9-times on every second day. Each group included 7 animals. The mean values for total weight, tumor weight and body weight (the difference between total and tumor weight) are shown in TABLE 8.

N.N.[Cl][Pt][Cl] [Cisplatin, cisplatin] was tested, and the “Body weight (total weight minus tumor weight)” value (day 7 after transplantation) was 21.95 g, the Total weight (day 7 after transplantation) was 22.20 g and the Tumor weight (day 7 after transplantation) was 0.25 g. For the same molecule, the “Body weight (total weight minus tumor weight)” value (day 9 after transplantation) was 22.45 g, the Total weight (day 9 after transplantation) was 23.00 g and the Tumor weight (day 9 after transplantation) was 0.55 g. For the same molecule, the “Body weight (total weight minus tumor weight)” value (day 11 after transplantation) was 21.75 g, the Total weight (day 11 after transplantation) was 23.10 g and the Tumor weight (day 11 after transplantation) was 1.35 g. The “Body weight (total weight minus tumor weight)” value (day 15 after transplantation) was 20.25 g, the Total weight (day 15 after transplantation) was 22.90 g and the Tumor weight (day 15 after transplantation) was 2.65 g. The “Body weight (total weight minus tumor weight)” value (day 17 after transplantation) was 17.85 g, the Total weight (day 17 after transplantation) was 21.60 g and the Tumor weight (day 17 after transplantation) was 3.75 g. The “Body weight (total weight minus tumor weight)” value (day 21 after transplantation) was 15.95 g, the Total weight (day 21 after transplantation) was 20.60 g and the Tumor weight (day 21 after transplantation) was 4.65 g.
